Numbers after ± are expanded uncertainties.
Settings: Liquid, isochoric method

CCn1cc[n+](C)c1.N#CN=C=[N-] [1-ethyl-3-methylimidazolium dicyanamide]
Settings | mass density [kg/m3]
256.82 K, 20357 kPa | 1142.71 ± 1.7
256.92 K, 29975 kPa | 1145.41 ± 1.7
256.97 K, 10611 kPa | 1139.49 ± 1.6
257.12 K, 1250.8 kPa | 1136.35 ± 1.6
261.97 K, 9950.2 kPa | 1135.94 ± 1.6
262.11 K, 19886 kPa | 1139.04 ± 1.6
262.33 K, 39980 kPa | 1144.93 ± 1.7
262.46 K, 619.6 kPa | 1132.49 ± 1.6
267.67 K, 20023 kPa | 1135.45 ± 1.6
267.67 K, 39943 kPa | 1141.75 ± 1.7
267.7 K, 9753.2 kPa | 1132.18 ± 1.6
267.7 K, 9894 kPa | 1132.04 ± 1.6
267.7 K, 29879 kPa | 1138.56 ± 1.6
267.7 K, 29968 kPa | 1138.56 ± 1.6
267.7 K, 49706 kPa | 1144.45 ± 1.7
267.71 K, 20196 kPa | 1135.44 ± 1.6
267.71 K, 40066 kPa | 1141.75 ± 1.7
267.71 K, 49662 kPa | 1144.45 ± 1.7
268.06 K, 649.7 kPa | 1128.69 ± 1.6
273.25 K, 29805 kPa | 1134.96 ± 1.6
273.34 K, 49967 kPa | 1141.26 ± 1.7
273.4 K, 39951 kPa | 1138.06 ± 1.6
273.49 K, 19943 kPa | 1131.55 ± 1.6
273.51 K, 10041 kPa | 1128.22 ± 1.6
273.55 K, 60051 kPa | 1143.95 ± 1.7
274.21 K, 775.7 kPa | 1124.56 ± 1.6
278.57 K, 59071 kPa | 1140.8 ± 1.7
279.2 K, 40050 kPa | 1134.45 ± 1.6
279.22 K, 50024 kPa | 1137.55 ± 1.6
279.41 K, 30010 kPa | 1131.04 ± 1.6
279.59 K, 10349 kPa | 1124.23 ± 1.6
279.65 K, 9960.6 kPa | 1124.1 ± 1.6
279.66 K, 20569 kPa | 1127.7 ± 1.6
280.01 K, 1016.8 kPa | 1120.72 ± 1.6
280.04 K, 1077.6 kPa | 1120.72 ± 1.6
285.08 K, 50002 kPa | 1133.94 ± 1.6
285.13 K, 60064 kPa | 1137.04 ± 1.6
285.39 K, 9816.5 kPa | 1120.27 ± 1.6
285.42 K, 40116 kPa | 1130.53 ± 1.6
285.43 K, 19560 kPa | 1123.61 ± 1.6
285.44 K, 19459 kPa | 1123.61 ± 1.6
285.45 K, 9814.9 kPa | 1120.27 ± 1.6
285.5 K, 20153 kPa | 1123.73 ± 1.6
285.51 K, 30235 kPa | 1127.2 ± 1.6
286.62 K, 2009 kPa | 1116.68 ± 1.6
291.09 K, 59995 kPa | 1133.42 ± 1.6
291.45 K, 50059 kPa | 1130.01 ± 1.6
291.47 K, 9754 kPa | 1116.28 ± 1.6
291.47 K, 50178 kPa | 1130.13 ± 1.6
291.51 K, 40153 kPa | 1126.69 ± 1.6
291.61 K, 19904 kPa | 1119.75 ± 1.6
291.79 K, 29944 kPa | 1123.08 ± 1.6
297.62 K, 60101 kPa | 1129.48 ± 1.6
297.75 K, 50232 kPa | 1126.16 ± 1.6
297.91 K, 20011 kPa | 1115.75 ± 1.6
297.98 K, 30141 kPa | 1119.22 ± 1.6
298.08 K, 1020.2 kPa | 1108.78 ± 1.6
298.16 K, 103.4 kPa | 1108.35 ± 1.6
298.16 K, 40265 kPa | 1122.54 ± 1.6
303.94 K, 60074 kPa | 1125.65 ± 1.6
304.2 K, 39942 kPa | 1118.71 ± 1.6
304.23 K, 49724 kPa | 1122.03 ± 1.6
304.28 K, 29918 kPa | 1115.22 ± 1.6
304.34 K, 10634 kPa | 1108.27 ± 1.6
310.52 K, 20049 kPa | 1107.77 ± 1.6
310.57 K, 59616 kPa | 1121.51 ± 1.6
310.65 K, 49941 kPa | 1118.17 ± 1.6
310.81 K, 40003 kPa | 1114.68 ± 1.6
311.24 K, 1092 kPa | 1100.23 ± 1.6
317.17 K, 9765 kPa | 1099.76 ± 1.6
317.19 K, 29905 kPa | 1107.23 ± 1.6
317.23 K, 59899 kPa | 1117.62 ± 1.6
317.44 K, 50073 kPa | 1114.13 ± 1.6
324.19 K, 60082 kPa | 1113.57 ± 1.6
324.28 K, 20103 kPa | 1099.19 ± 1.6
325.02 K, 1127.1 kPa | 1091.44 ± 1.6
331.28 K, 30008 kPa | 1098.63 ± 1.6
331.29 K, 9862.4 kPa | 1090.95 ± 1.6
337.92 K, 60055 kPa | 1105.54 ± 1.6
338.39 K, 40023 kPa | 1098.06 ± 1.6
338.74 K, 20149 kPa | 1090.36 ± 1.6
339.67 K, 1074 kPa | 1082.2 ± 1.5
345.69 K, 50073 kPa | 1097.48 ± 1.6
346.21 K, 30275 kPa | 1089.77 ± 1.6
346.22 K, 9873.1 kPa | 1081.75 ± 1.5

CCCCn1cc[n+](C)c1.N#CN=C=[N-] [1-butyl-3-methylimidazolium dicyanamide]
Settings | mass density [kg/m3]
237.2 K, 1327.9 kPa | 1099.45 ± 1.6
242.14 K, 9986.9 kPa | 1099.05 ± 1.6
247.77 K, 20189 kPa | 1098.57 ± 1.6
248.09 K, 1170.5 kPa | 1092.06 ± 1.6
253.33 K, 10197 kPa | 1091.63 ± 1.6
253.33 K, 29961 kPa | 1098.11 ± 1.6
259.12 K, 20009 kPa | 1091.16 ± 1.6
259.17 K, 39931 kPa | 1097.63 ± 1.6
259.68 K, 1030 kPa | 1084.28 ± 1.5
265.12 K, 50114 kPa | 1097.14 ± 1.6
265.24 K, 10141 kPa | 1083.84 ± 1.5
265.25 K, 30347 kPa | 1090.66 ± 1.6
270.55 K, 18709 kPa | 1083.42 ± 1.5
271.07 K, 59859 kPa | 1096.65 ± 1.6
271.13 K, 39925 kPa | 1090.18 ± 1.6
273.28 K, 2767.5 kPa | 1075.98 ± 1.5
277.42 K, 50079 kPa | 1089.67 ± 1.6
277.92 K, 9955.1 kPa | 1075.61 ± 1.5
277.96 K, 30503 kPa | 1082.82 ± 1.5
277.98 K, 10008 kPa | 1075.61 ± 1.5
283.67 K, 59955 kPa | 1089.17 ± 1.6
284.14 K, 40138 kPa | 1082.33 ± 1.5
284.15 K, 1038.8 kPa | 1068.31 ± 1.5
284.23 K, 1148.3 kPa | 1068.31 ± 1.5
284.47 K, 20074 kPa | 1075.1 ± 1.5
291.05 K, 29671 kPa | 1074.21 ± 1.5
291.05 K, 30032 kPa | 1074.57 ± 1.5
291.06 K, 11299 kPa | 1067.78 ± 1.5
291.44 K, 51356 kPa | 1081.75 ± 1.5
296.97 K, 19796 kPa | 1067.32 ± 1.5
297.26 K, 60158 kPa | 1081.29 ± 1.5
298.18 K, 40270 kPa | 1073.65 ± 1.5
298.18 K, 40659 kPa | 1074.02 ± 1.5
299.21 K, 3719.1 kPa | 1059.78 ± 1.5
303.97 K, 10315 kPa | 1059.42 ± 1.5
303.97 K, 30176 kPa | 1066.78 ± 1.5
304.81 K, 50325 kPa | 1073.5 ± 1.5
310.98 K, 40117 kPa | 1066.24 ± 1.5
311.01 K, 20033 kPa | 1058.89 ± 1.5
311.34 K, 59700 kPa | 1072.99 ± 1.5
311.37 K, 676.6 kPa | 1050.98 ± 1.5
317.98 K, 49917 kPa | 1065.7 ± 1.5
318.27 K, 9911 kPa | 1050.46 ± 1.5
318.27 K, 30183 kPa | 1058.34 ± 1.5
325.32 K, 60007 kPa | 1065.14 ± 1.5
325.56 K, 39796 kPa | 1057.8 ± 1.5
326 K, 19921 kPa | 1049.89 ± 1.5
326.53 K, 876.3 kPa | 1041.71 ± 1.5
333.12 K, 50157 kPa | 1057.22 ± 1.5
333.67 K, 9918.1 kPa | 1041.19 ± 1.5
333.67 K, 30169 kPa | 1049.32 ± 1.5
340.8 K, 60149 kPa | 1056.64 ± 1.5
341.31 K, 39980 kPa | 1048.75 ± 1.5
341.77 K, 20126 kPa | 1040.59 ± 1.5
342.41 K, 781.5 kPa | 1031.94 ± 1.4
349.32 K, 50089 kPa | 1048.15 ± 1.5
349.8 K, 9629.2 kPa | 1031.41 ± 1.4
349.8 K, 30031 kPa | 1040.31 ± 1.5
